Source: BindingDB's records for doi:10.1021/acs.jnatprod.9b00648 (Seoul National University, 2019)
pIC50: −log10 of the molar value.

Assay: Inhibition of VEGFR2 in HUVEC assessed as inhibition of VEGF-induced tube formation incubated for 8 hrs by inverted microscopic method

- pIC50: 4.39
Structure (SMILES): C/C=C(\C)C(=O)O[C@@H]1C2=C(C)C(=O)N[C@]2(O)C[C@@]2(C)O[C@@H]2CC[C@@]2(C)O[C@H]12
